Values after ≈ are worked out from the molar mass of the structure shown. Like-named read-outs stand apart in the source and are kept apart here.
Legend:
[1] = design: method as in PMID 37880389; conditions: including increases in patient troponin I levels; cited from earlier work
[2] = design: method as in PMID 30254093; conditions: species not given; cited from earlier work
Mcl-1 = Mcl-1 (Homo sapiens, UniProt Q07820); type: binding; conditions: read-out: TR-FRET Ki
Text: Mixtures containing vehicle without compound served as a negative control, while mixtures containing no protein served as a positive control.

NCI-H929 cell line = assay: cells; conditions: Homo sapiens
Method: (§1) NCI-H1048 were cultured in custom medium prepared by PanBioTech containing DMEM/F12 + 5% fetal calf serum, 0.005 mg/mL insulin, 0.01 mg/mL transferrin, 30 nM sodium selenite, 10 nM hydrocortisone, 10 nM β-estradiol and […] 2 mM L-glutamine.
(§2) Suspension cells were plated immediately before compound addition. Adherent cell lines were incubated overnight at 37 °C in a tissue culture incubator prior to compound addition. Compounds were added in triplicates using an HP D300e Digital Dispenser (Hewlett-Packard) or manually at the concentrations indicated and total volumes were normalized using dimethyl sulfoxide (DMSO) backfill, with final DMSO concentration of 0.5%. Control wells were treated with DMSO only.

K562 cell line = assay: cells; conditions: Homo sapiens, K562, read-out: K562 GI50
Method: as §1, §2

[3] = A427 NSCLC subcutaneous xenograft model; type: in vivo, mouse; conditions: female, CB17/Icr-Prkdc(scid)/IcrCrl, mouse, in vivo, single agent
Method: (§3) After fixation, tumor samples were embedded in paraffin blocks. Two-μm thick sections of each FFPE-block were prepared on a microtome, placed on glass slides and dewaxed. H&E staining was performed using Papanicolaous Solution 1a Harris′ Hematoxylin solution (Merck) and Shandon Eosin Y aqueous (Thermo) on the Gemini stainer (Thermo). […] Analysis was performed using HALO image analysis software 2.1 (Indica Laboratories). Quantification of Ki67 positivity was performed using multiplex IHC module with integrated AI based nucleus detection and a threshold set for positive nuclei was used. Viable tumor area was calculated from H&E staining using AI based classifier Densenet V2.
(§4) Female BomTac:NMRI-Foxn1nu mice and CB17/Icr-Prkdc(scid)/IcrCrl and were obtained from Taconic Denmark at an age of 6–8 weeks. After arrival of the local animal facility at Boehringer Ingelheim RCV GmbH & Co KG mice were allowed to adjust to housing conditions at least for 5 days before the start of the experiment. Mice were group-housed under pathogen-free and controlled environmental conditions and handled according to the institutional, governmental and European Union guidelines (Austrian Animal Protection Laws, GV-SOLAS and FELASA guidelines). Animal studies were approved by the internal ethics committee and the local governmental committee. To establish subcutaneous tumors mice were injected with 5 × 10^6 A427cells in Matrigel (CB17/Icr-Prkdc(scid)/IcrCrl), 1 × 10^6 NCI-H1048 cells in Matrigel (BomTac:NMRI-Foxn1nu and 5 × 10^6 NCI-H929 cells in Matrigel (CB17/Icr-Prkdc(scid)/IcrCrl). Tumor diameters were measured with a caliper three times a week. The volume of each tumor [in mm^3] was calculated according to the formula “tumor volume = length × diameter^2 × π/6.” To monitor side effects of treatment, mice were inspected daily for abnormalities and body weight was determined three times per week. Animals were sacrificed when the tumors reached a size of 1500 mm^3. […] Tumors were reported as regressing when the tumor volume at a given day was below the tumor volume at treatment start.

[4] = Metabolic stability in hepatocytes, mouse; type: in vitro ADME; conditions: incubated with 50% of human serum
[5] = Metabolic stability in hepatocytes, human; type: in vitro ADME; conditions: incubated with 50% of human serum
[6] = Metabolic stability in hepatocytes, minipig; type: in vitro ADME; conditions: incubated with 50% of human serum
OATP1B1/ABCC2 = assay: Transporter substrate assessment; type: in vitro ADME
[7] = Metabolic stability in hepatocytes, dog; type: in vitro ADME; conditions: incubated with 50% of human serum
Dog IV PK = conditions: dosed at 0.5 mg/kg
Method: (§6) For PK analysis, mice and dogs were administered intravenously with compound formulated either in 10% ethanol and 10% Cremophor EL for mice or in 50% ethanol and 50% PEG500 for dogs. Plasma samples were obtained at predefined time points and compound concentrations in plasma were measured by quantitative HPLC-MS/MS using an internal standard. Calibration and quality control samples were prepared using blank plasma from untreated animals. Samples were precipitated with acetonitrile and injected into a HPLC system (Agilent 1200). […] The HPLC was interfaced by ESI operated in positive ionization mode to a triple quadrupole mass spectrometer (6500+ Triple Quad System, SCIEX) operated in multiple reaction monitoring mode. Chromatograms were analyzed with Analyst (SCIEX) and pharmacokinetic parameters were calculated by noncompartmental analysis using proprietary software.

[8] = Metabolic stability in hepatocytes, rat; type: in vitro ADME; conditions: incubated with 50% of human serum
Aqueous solubility = type: physicochemical; conditions: aqueous solution; at pH 7.8
Bcl-2 = Bcl-2 (Homo sapiens, UniProt P10415); assay: FPA assay, Bcl-2; type: binding
Plasma protein binding = type: in vitro ADME; conditions: above the limit of quantification of the assay
[9] = NCI-H929 subcutaneous multiple myeloma xenograft model; type: in vivo, mouse; conditions: female, CB17/Icr-Prkdc(scid)/IcrCrl, mouse, in vivo, single dose IV, NCI-H929 xenograft study
Method: (§5) Caspase-Glo 3/7 Assay (PROMEGA #G8090) was performed according to manufacturer’s instructions using 200 ng of sample lysate in a total volume of 100 μL per well. 100 μL of the GLO reagent were added, mixed, and incubated for 90 min at room temperature. The plate was measured on an EnSpireTM Plate reader (luminescence, 0.1s).
as §4

[10] = system: NCI-H929 cell line-derived MM xenograft; assay: as above; type: in vivo, mouse; conditions: 60 and 80 mg/kg, single dose IV
Method: as §5, §4

[11] = Relative plasma protein binding by shift in EC50 in a caspase induction assay, dog; type: in vitro ADME; conditions: dog vs human
Bcl-XL = Bcl-XL (Homo sapiens, UniProt Q07817); assay: FPA assay, Bcl-XL; type: binding
Excretion study in rat = type: in vivo
[12] = Relative plasma protein binding by shift in EC50 in a caspase induction assay, rat; type: in vitro ADME; conditions: rat vs human
[13] = Relative plasma protein binding by shift in EC50 in a caspase induction assay, minipig; type: in vitro ADME; conditions: minipig vs human
[14] = system: A427 cell line-derived NSCLC xenograft; assay: A427 NSCLC subcutaneous xenograft model; type: in vivo, mouse
Method: as §3, §4

A427 cells = assay: cells; conditions: Homo sapiens, A-427, read-out: A427 GI50
Method: (§7) NCI-H1048 were cultured in custom medium prepared by PanBioTech containing DMEM/F12 + 5% fetal calf serum, 0.005 mg/mL insulin, 0.01 mg/mL transferrin, 30 nM sodium selenite, 10 nM hydrocortisone, 10 nM β-estradiol and 4.5 mM 2 mM L-glutamine. […] All cell lines were cultured at 37 °C with 5% CO2 in a humidified incubator and have been regularly tested negatively for mycoplasm contamination.

NCI-H1048 SCLC xenograft = conditions: topotecan at 2.5 mg/kg q3/4d
Method: Female BomTac:NMRI-Foxn1nu mice and CB17/Icr-Prkdc(scid)/IcrCrl and were obtained from Taconic Denmark at an age of 6–8 weeks. After arrival of the local animal facility at Boehringer Ingelheim RCV GmbH & Co KG mice were allowed to adjust to housing conditions at least for 5 days before the start of the experiment. […] To establish subcutaneous tumors mice were injected with 5 × 10^6 A427cells in Matrigel (CB17/Icr-Prkdc(scid)/IcrCrl), 1 × 10^6 NCI-H1048 cells in Matrigel (BomTac:NMRI-Foxn1nu and 5 × 10^6 NCI-H929 cells in Matrigel (CB17/Icr-Prkdc(scid)/IcrCrl). Tumor diameters were measured with a caliper three times a week. The volume of each tumor [in mm^3] was calculated according to the formula “tumor volume = length × diameter^2 × π/6.” To monitor side effects of treatment, mice were inspected daily for abnormalities and body weight was determined three times per week. Animals were sacrificed when the tumors reached a size of 1500 mm^3. […] Tumors were reported as regressing when the tumor volume at a given day was below the tumor volume at treatment start.

NCI-H1048 cells = assay: cells; conditions: Homo sapiens, NCI-H1048, read-out: NCI-H1048 GI50
Method: as §7

[15] = NCI-H929, read-out: NCI-H929 GI50
[16] = docetaxel at 10 mg/kg q7d, single agent

Chain of Mcl-1 (Q07820 whole entry): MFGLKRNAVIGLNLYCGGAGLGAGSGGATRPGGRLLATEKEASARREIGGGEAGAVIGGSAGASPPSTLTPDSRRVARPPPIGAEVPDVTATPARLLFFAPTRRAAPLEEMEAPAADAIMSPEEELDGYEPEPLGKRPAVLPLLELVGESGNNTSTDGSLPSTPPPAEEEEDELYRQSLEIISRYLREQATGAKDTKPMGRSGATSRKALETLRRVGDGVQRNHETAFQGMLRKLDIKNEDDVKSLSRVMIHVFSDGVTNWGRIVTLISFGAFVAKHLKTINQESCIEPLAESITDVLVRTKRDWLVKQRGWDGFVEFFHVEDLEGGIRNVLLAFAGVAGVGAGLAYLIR
Chain of Bcl-XL (Q07817 whole entry, species assumed): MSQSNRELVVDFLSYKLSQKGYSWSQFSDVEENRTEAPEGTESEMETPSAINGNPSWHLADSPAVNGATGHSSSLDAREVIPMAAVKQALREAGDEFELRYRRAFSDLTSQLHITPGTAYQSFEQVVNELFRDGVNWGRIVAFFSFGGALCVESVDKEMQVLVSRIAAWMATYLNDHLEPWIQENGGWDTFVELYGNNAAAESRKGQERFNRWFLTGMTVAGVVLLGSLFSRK
Chain of Bcl-2 (P10415 whole entry, species assumed): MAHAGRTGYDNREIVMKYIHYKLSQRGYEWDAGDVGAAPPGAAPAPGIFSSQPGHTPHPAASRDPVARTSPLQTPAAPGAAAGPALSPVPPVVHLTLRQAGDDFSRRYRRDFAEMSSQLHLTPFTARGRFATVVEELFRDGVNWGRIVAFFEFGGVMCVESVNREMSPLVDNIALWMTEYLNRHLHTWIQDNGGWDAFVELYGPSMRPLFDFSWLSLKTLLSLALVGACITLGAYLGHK
Method for Mouse IV PK: as §6

In the case of `COc1ccccc1-c1nccc(COc2ccccc2C[C@@H](Oc2ncnc3sc(-c4ccc(F)cc4)c(-c4ccc(OCCN5CCN(C)CC5)c(Cl)c4C)c23)C(=O)O)n1` [Compound 1], the “toxicity reported in the clinic” value [1] is listed as “dose limiting toxicities”.
For `CO[C@H]1/C=C/C[C@H](C)[C@@H](C)S(=O)(=O)NC(=O)c2ccc3c(c2)N(C[C@@H]2CC[C@H]21)C[C@@]1(CCCc2cc(Cl)ccc21)CO3` [Compound 3], the T [2] is given as 14 h and the Vss [2] is given as 0.6 L/kg.
In the case of `CO[C@]1(CN2CCN3CCCC[C@@H]3C2)/C=C/C[C@H](C)[C@@H](C)S(=O)(=O)NC(=O)c2ccc3c(c2)N(C[C@@H]2CC[C@H]21)C[C@@]1(CCCc2cc(Cl)ccc21)CO3` [Compound 4], the “toxicity reported in the clinic” value [1] is listed as “dose limiting toxicities”.
For `Cc1c(Cl)c2c(Cl)c(C)c1-c1c(-c3ccc(F)cc3)sc3ncnc(c13)O[C@@H](C(=O)O)Cc1cc(ccc1OCc1ccnc(-c3ccc(OC[C@H]4COCCO4)cc3)n1)OC[C@@H](CN1CCN(C)CC1)O2` [Compound 5], the “toxicity reported in the clinic” value [1] is listed as “dose limiting toxicities”.
Work on `Cc1cc(N2C[C@@H](C)n3c(c(CCCOc4cc(C)c(Cl)c(C)c4)c4ccc(Cl)c(-c5c(C)nn(C)c5C)c43)C2=O)c2c(c1)cc(C(=O)O)n2C` [Compound 11, (R)-7-(7-Chloro-10-(3-(4-chloro-3,5-dimethylphenoxy)propyl)-4-methyl-1-oxo-6-(1,3,5-trimethyl-1H-pyrazol-4-yl)-3,4-dihydropyrazino[1,2-a]indol-2(1H)-yl)-1,5-dimethyl-1H-indole-2-carboxylic Acid] yielded a Ki (Mcl-1) of 0.205 ± 0.018 nM, a GI50 (NCI-H929 cell line; [15]) of 140 ± 110 nM and a GI50 (K562 cell line) of over 12500 nM.
Work on `COc1cc(N2C[C@@H](C)n3c(c(CCCOc4cc(C)c(Cl)c(C)c4)c4ccc(Cl)c(-c5c(C)nn(C)c5C)c43)C2=O)c2c(c1)cc(C(=O)O)n2C` [Compound 12, (R)-7-(7-Chloro-10-(3-(4-chloro-3,5-dimethylphenoxy)propyl)-4-methyl-1-oxo-6-(1,3,5-trimethyl-1H-pyrazol-4-yl)-3,4-dihydropyrazino[1,2-a]indol-2(1H)-yl)-5-methoxy-1-methyl-1H-indole-2-carboxylic Acid] yielded a Ki (Mcl-1) of 0.185 ± 0.027 nM, a GI50 (NCI-H929 cell line; [15]) of 211 ± 22 nM and a GI50 (K562 cell line) of over 12500 nM.
With `COc1ccc(N2C[C@@H](C)n3c(c(CCCOc4cc(C)c(Cl)c(C)c4)c4ccc(Cl)c(-c5c(C)nn(C)c5C)c43)C2=O)c2c1cc(C(=O)O)n2C` [Compound 13, (R)-7-(7-Chloro-10-(3-(4-chloro-3,5-dimethylphenoxy)propyl)-4-methyl-1-oxo-6-(1,3,5-trimethyl-1H-pyrazol-4-yl)-3,4-dihydropyrazino[1,2-a]indol-2(1H)-yl)-4-methoxy-1-methyl-1H-indole-2-carboxylic Acid] the Ki (Mcl-1) was 0.091 ± 0.003 nM, the GI50 (NCI-H929 cell line; [15]) was 110 ± 38 nM and the GI50 (K562 cell line) was over 7100 nM.
In the case of `COCc1cc(N2C[C@@H](C)n3c(c(CCCOc4cc(C)c(Cl)c(C)c4)c4ccc(Cl)c(-c5c(C)nn(C)c5C)c43)C2=O)c2c(c1)cc(C(=O)O)n2C` [Compound 14, (R)-7-(7-Chloro-10-(3-(4-chloro-3,5-dimethylphenoxy)propyl)-4-methyl-1-oxo-6-(1,3,5-trimethyl-1H-pyrazol-4-yl)-3,4-dihydropyrazino[1,2-a]indol-2(1H)-yl)-5-(methoxymethyl)-1-methyl-1H-indole-2-carboxylic Acid], the Ki (Mcl-1) is reported as 0.2 ± 0.065 nM, the GI50 (NCI-H929 cell line; NCI-H929, read-out: H929 GI50) is reported as 112 nM and the GI50 (NCI-H929 cell line; [15]) is reported as 122 ± 16 nM. The GI50 (K562 cell line) was over 12500 nM.
With `COc1c(OCC2CCOCC2)cc(N2C[C@@H](C)n3c(c(CCCOc4cc(C)c(Cl)c(C)c4)c4ccc(Cl)c(-c5c(C)nc(C)nc5C)c43)C2=O)c2c1cc(C(=O)O)n2C` [Compound 26, (R)-7-(7-Chloro-10-(3-(4-chloro-3,5-dimethylphenoxy)propyl)-4-methyl-1-oxo-6-(2,4,6-trimethylpyrimidin-5-yl)-3,4-dihydropyrazino[1,2-a]indol-2(1H)-yl)-4-methoxy-1-methyl-5-((tetrahydro-2H-pyran-4-yl)methoxy)-1H-indole-2-carboxylic Acid] the AUC ([3]; 26 at 60 mg/kg q7d IV) was 552 µM·h, the “metabolic stability in hepatocytes” value [4] was 40 % Qh and the “metabolic stability in hepatocytes” value [5] was 12 % Qh. The “metabolic stability in hepatocytes” value [6] was 35 % Qh, the “substrate of OATP1B1/ABCC2” value (OATP1B1/ABCC2) was “substrate” and the “metabolic stability in hepatocytes” value [7] was 19 % Qh. The AUC/Dose (Dog IV PK) was 3860 nM*h/mpk, the CL (Dog IV PK) was 5.2 mL/min/kg and the “CL (% hep blood flow)” value (Dog IV PK) was 17 % hep blood flow. The “metabolic stability in hepatocytes” value [8] was 22 % Qh, the solubility (Aqueous solubility) was 15 mg/mL (≈ 17.3 mM) and the Ki (Bcl-2) was 1800 nM. The CL (Mouse IV PK; mouse IV, dosed at 25 mg/kg) was 2.2 mL/min/kg, the “reduction in clearance from compound 20” value (Mouse IV PK; mouse IV, relative to compound 20) was 20 fold and the Vd (Mouse IV PK; mouse, plasma, iv, 25 mg/kg) was under 0.1 L/kg. It also gave a clearance (Mouse IV PK; mouse, plasma, iv, 25 mg/kg) of 2.2 mL/min/kg, a half-life (Mouse IV PK; mouse, plasma, iv, 25 mg/kg) of 3.7 h and a fraction unbound (Plasma protein binding) of under 0.002. For the same molecule, the AUC ([9]; 60 mg/kg) was 442 µM·h, the AUC ([9]; 80 mg/kg) was 635 µM·h and the “change in the median weight of the mice” value [10] was “no significant change”. The “plasma protein binding lower than in human” value [11] was about 2 fold, the Ki (Bcl-XL) was 36000 nM and the “biliary clearance as share of the total clearance” value (Excretion study in rat) was 60–75%. The “plasma protein binding lower than human” value [12] was 3 fold and the “plasma protein binding lower than in human” value [13] was about 2 fold.
With `CC(=O)O[C@@]12CO[C@@H]1C[C@H](O)[C@@]1(C)C(=O)[C@H](O)C3=C(C)[C@@H](OC(=O)[C@H](O)[C@@H](NC(=O)OC(C)(C)C)c4ccccc4)C[C@@](O)([C@@H](OC(=O)c4ccccc4)[C@H]21)C3(C)C` [Docetaxel, docetaxel] the “TGI d21” value [14, 16] was 112%, the “Tumor regressions d21” value [14, 16] was 8 x/8 and the “tumor outgrowth began around day after treatment start” value ([14]; docetaxel at 10 mg/kg q7d alone) was about 15 days. For the same molecule, the AUC ([3]; docetaxel at 10 mg/kg q7d) was 15.8 µM·h and the GI50 (A427 cells) was 4400 nM.
With `CC[C@@]1(O)C(=O)OCc2c1cc1n(c2=O)Cc2cc3c(CN(C)C)c(O)ccc3nc2-1` [Topotecan, topotecan] the “TGI d16” value (NCI-H1048 SCLC xenograft) was 94%, the “Tumor regression d16” value (NCI-H1048 SCLC xenograft) was 1 x/8 and the GI50 (NCI-H1048 cells) was 14 nM.
